Counter-ions that a name gives are not always drawn.

Experiment [1] deals with Arg-vasopressin induced coronary spasm, anaesthetized Sprague Dawley rats. As to the kind of experiment: In vivo antianginal activity, Arg-vasopressin-induced coronary spasm (T-wave increase) in anaesthetized rats. To be noted: Rattus norvegicus, iv, 4 increasing doses; 50% inhibition of T-wave increase induced by i.v. Arg-vasopressin in anaesthetized rats. The method, then:
The in vivo antianginal activity was determined on anaesthetized Sprague Dawley rats of weight 350-400 g, in accordance with the method of M. Leitold et al., Arzeim. Forsch., 36, 1454 1986. The test was carried out by intravenously administering to the animals one I.U./Kg, equivalent to […] of Arg-vasopressin, thus inducing a reproducible coronary spasm that may be electrocardiographically monitored by an increase of the T-wave. The animals were treated intravenously with 4 increasing doses of the compounds of the present invention to measure their ED50 (i.e., the dose giving 50% inhibition of the T-wave increase).

Experiment [2] has as its system rabbit aorta strip contracted with noradrenaline. As to the kind of experiment: Vasodilative activity in vitro, inhibition of noradrenaline-induced contraction of rabbit aorta strip. It is filed as cell-based. To be noted: Oryctolagus cuniculus; 50% inhibition of noradrenaline contraction of rabbit aorta strip. The protocol:
The vasodilative activity of the compounds of the present invention were determined by testing of a rabbit aorta strip contracted with noradrenaline. Using the method described by K. Murakami et al. Eur. J. Pharmacol., 141, 195, 1987., IC50 values (i.e. the micromolar (μM) concentrations of active substances causing a 50% inhibition of the contraction of the aorta strip), were determined.

Molecule `O=C1c2cc([N+](=O)[O-])ccc2OCN1CCO[N+](=O)[O-]` [Example 1, 2,3-Dihydro-3-(2'-nitrooxyethyl)-6-nitro,4H-1,3-benzoxazin-4-one] displayed an ED50 in experiment [1] of 0.0637 mg/kg. For the same molecule, in experiment [2], the 50% inhibitory concentration (IC50) came to 0.021 µM.

In experiment [1], `CC(=O)Nc1ccc2c(c1)C(=O)N(CCO[N+](=O)[O-])CO2` [Example 2, 6-Acetamido-2,3-dihydro-3-(2'-nitrooxyethyl)-4H-1,3-benzoxazin-4-one] gave an ED50 of 0.021 mg/kg. In experiment [2], this molecule gave a half-inhibitory concentration (IC50) of 0.27 µM.

In experiment [1], `CN(C)C=Nc1ccc2c(c1)C(=O)N(CCO[N+](=O)[O-])CO2` [Example 3, 2,3-Dihydro-6-(N',N',-dimethyl-N-formimido)-3-(2'-nitro-oxyethyl)-4H-1,3-benzoxazin-4-one-HCl] yielded an ED50 of 0.0097 mg/kg. The 50% inhibitory concentration (IC50) in experiment [2] was 0.64 µM.

Take `N#Cc1ccc2c(c1)C(=O)N(CCO[N+](=O)[O-])CO2` [Example 4, 6-Ciano-2,3-dihydro-3-(2'-nitrooxyethyl)-4H-1.3-benzoxazin-4-one]: the 50% effect level in experiment [1] (ED50) was put at a dose of 0.0115 mg/kg. In addition, inhibition in experiment [2] was half-maximal at 0.071 µM (IC50).

`O=C1c2cc(O)ccc2OCN1CCO[N+](=O)[O-]` [Example 5, 2,3-Dihydro-6-hydroxy-3-(2'-nitrooxyethyl)-4H-1,3-benzoxazin-4-one] returned an IC50 in experiment [2] of 0.096 µM.

In experiment [2], `O=C1c2ccc(O)cc2OCN1CCO[N+](=O)[O-]` [Example 6, 2,3-Dihydro-7-hydroxy-3-(2'-nitrooxyethyl)-4H-1,3-benzoxazin-4-one] returned an IC50 of 0.057 µM. Compared with the last molecule, the IC50 is about 1.7-fold lower.

(Values after patent publication US5480882A, “Benzoxazinone and benzothiazinone derivatives having cardiovascular activity” (Italfarmaco S.p.A., priority 1992, dated 1996).)
